Test results taken from US10752612B2, “PLK4 inhibitors” (LUDWIG INSTITUTE FOR CANCER RESEARCH LTD, priority 2015, dated 2020).

Tests used:
[1] = test system: RPE1 cells; assay: Passaging assay and flow cytometry, RPE1; format: cell-based, human; details: RPE1, addition Day 0, washout Day 8
Experimental: Passaging assays. Cells were seeded into 10 cm tissue culture plates at 150,000 (HeLa, NIH/3T3 and RPE1) or 200,000 cells/plate (primary fibroblasts). Compounds were added at the indicated concentrations. At 4-day intervals, cells were harvested, counted using a TC10 cell counter, and re-seeded into new plates at the densities above. Results are from 2 independent experiments.
Flow cytometry. Cells were seeded into 15 cm tissue culture plates such that each plate was 50-80% confluent at the time of harvesting. Cells were de-adhered by trypsinization and pelleted in 15 ml tubes by centrifugation. Each pellet was resuspended in 0.3 mL PBS, and 0.7 mL ice-cold 100% ethanol was added to the tube while gently vortexing. Fixed cells were stored at 4° C. for up to 2 weeks. For DNA content analysis, fixed cells were pelleted, washed twice with PBS, and resuspended in 0.5 mL PBS+2% BSA and Alexa488-conjugated anti-p-H3(Ser10) antibody. Samples were incubated for 1 hour at 4° C., then washed twice with PBS+2% BSA. Pellets were resuspended in 1 mL PBS+2% BSA, 10 μg/ml propidium iodide (Sigma-Aldrich), 500 µg/ml RNAse A (Thermo Scientific). Samples were incubated at 37° C. for 30 minutes, then transferred to 12×75 mm tubes for analysis. Data were acquired using FACSDiva software on a LSR II flow cytometer (BD Biosciences). 50,000 cells were analyzed per condition. Cell cycle fitting was performed using ModFit LT (Verity Software House).

[2] = test system: p53; assay: Western blotting, RPE1; format: cell-based, human
Experimental: Western blotting. […] Cell extracts were stored at −80° C. until use.
For p53, p-p53(S33), p-p53(S392), p-p38(T180/Y182), acetyl-p53(K382), LATS2, YAP, MDM2, MAPKAPK-2 and GFP, blocking and antibody incubations were performed in TBS-T+5% non-fat dry milk. For p-YAP(S127), p-p53(S9), p-p53(S15), p-p53(S20), p-p53(S37), p-p53(S315), p21 and p-MAPKAPK-2(T334), blocking and antibody incubations were performed in TBS-T+5% BSA. Detection was performed using HRP-conjugated secondary antibodies (GE Healthcare) with WesternBright Sirius (Advansta) or SuperSignal West Femto (Thermo Scientific) substrates. Membranes were imaged on a ChemiDoc MP system (Bio-Rad). Membranes were stripped and reprobed with antibodies against α-tubulin or GAPDH as loading controls.

[3] = test system: p38; details: RPE1, osmotic stress
Experimental: MAPKAPK-2 activation assay. RPE1 cells on 10 cm plates were treated with DMSO or 10 μM SB203580 for 2 hours prior to induction of stress.
Western blotting. Asynchronously growing cells from 10 cm plates were harvested at 50-80% confluence and lysed by sonication in RIPA buffer+protease and phosphatase inhibitor cocktail (Thermo Scientific). Cell extracts were stored at −80° C. until use. Before use, concentrations of extracts were normalized using a Bio-Rad Protein Assay (Bio-Rad). For every sample, 25-50 μg protein/lane was run on Mini-PROTEAN gels (Bio-Rad), and transferred to PVDF membranes using a TransBlot Turbo system (Bio-Rad).

CCOc1cc(C(C)(C)C)ccc1C1=N[C@@](C)(c2ccc(Cl)cc2)[C@@](C)(c2ccc(Cl)cc2)N1C(=O)N1CCN(CCCS(C)(=O)=O)CC1 [R7112]
proliferation after washout [1]: led to resumption of proliferation
p53 levels [2]: raised p53 levels

C[S+]([O-])c1ccc(-c2nc(-c3ccncc3)c(-c3ccc(F)cc3)[nH]2)cc1 (stereo not drawn) [SB203580]
phosphorylation of MAPKAPK-2 by p38 [3]: blocks phosphorylation of MAPKAPK-2
